Reference: publication PMC6823370, “A novel nucleoside rescue metabolic pathway may be responsible for therapeutic effect of orally administered cordycepin” (Scientific Reports, 2019)
Like-named read-outs stand apart in the source and are kept apart here.

Experiments:
[1] = Liver microsomal stability, human liver microsomes; format: in vitro ADME; conditions: human liver microsome, pentostatin −; for CLint scaled at 1 µM: human, liver microsomes
Protocol: Human and rat liver microsomes were used in the experiment following previously reported methods[49],[50]. Microsomes were used at 0.5 mg protein/mL and cordycepin was tested at 1 µM. […] The reaction mixture was incubated in the shaking incubator at 37 °C for 30 min with sampling every 10 min. The results of intrinsic clearance and the fraction that escapes hepatic metabolism (by both well-stirred and parallel-tube models) were calculated by previously reported equations and physiological parameters[50]–[52]. The experiments were performed in triplicates.
(§1) Samples from studies of plasma stability, protein binding, biorelevant solubility and liver microsomal stability were subjected to liquid-liquid extraction and HPLC-UV analysis. To 100 µL of sample, internal standard (2′-deoxyadenosine) was spiked at 10 µg/mL and 300 µL of 0.1 M NaOH was added. Extraction solvent (3 mL) of ethyl acetate-isopropyl alcohol (85:15, v/v) was added and vortex-mixed for 10 min. Samples were then centrifuged at 1160 g for 5 min and the supernatant was transferred and dried under N2 gas. Dried samples were reconstituted with 100 uL of deionised distilled water (DDW) and 40 µL was injected into the HPLC-UV. The HPLC-UV setup was adopted from a validated method[22] with addition of a gradient scheme to elute the impurities from samples. Waters Alliance 2695 module with Waters 996 PDA detector was used for the HPLC-UV system with Capcell Pak C18 3 µm, 4.6 × 150 mm as the stationary phase. Mobile phase was a mixture of acetonitrile (A) and DDW (B) at flow rate 0.8 mL/min with a gradient scheme of the following: 0–9 min, B 94%; 9–14 min, B decreased to 20%; 14–24 min, B 20%; 24–26 min, B increased to 94%; and 26–35 min, B 94%. Calibration curves were constructed at a range of 10 – 20000 ng/mL and chromatograms were obtained at 259 nm of wavelength.

[2] = In vivo pharmacokinetics in rats after intravenous or oral cordycepin; design: species or system Sprague Dawley rats; conditions: for AUC(0-t) / C0 / clearance: in vivo; for AUC(0-t) / C0 / AUC0→t/Dose of cordycepin: rat plasma; for AUC(0-t): read-out: AUC0→t of cordycepin; for C0: read-out: C0 of cordycepin; for clearance: read-out: CL of cordycepin (converted)
Protocol: Protocols for the animal experiments in this study were reviewed and approved by the University of Nottingham Ethical Review Committee in accordance with the Animals [Scientific Procedures] Act 1986. Four male Sprague Dawley rats (Charles River Laboratories, UK) of 300–350 g body weight were used. The animals were housed in the Bio Support Unit, University of Nottingham at controlled temperature, 12 h light/dark cycle and free access to food and water. The animals were allowed to acclimatise for at least six days prior to any procedures.
Prior to pharmacokinetic studies, jugular vein cannulation surgery was performed under general anaesthesia (<3% isoflurane inhalation) for blood sampling or intravenous drug administration. Following two nights of recovery from surgery, the animals were intravenously or orally administered with the PBS-based formulation (5.5 mg/mL cordycepin) developed in a previously reported study. The dose was 8 or 20 mg/kg for intravenous administration and 8 or 80 mg/kg for oral administration. […] When whole blood was analysed, an aliquot was withdrawn immediately after mixing with the pretreated pentostatin. Otherwise, the mixture was centrifuged (3000 g, 10 min) to obtain plasma and samples were stored within the storage conditions tested prior to analysis.
Samples from Caco-2 permeability, in vitro determination of CordyTP formation and in vivo experiments were subjected to protein precipitation followed by LC-MS/MS analysis. To 50 µL of rat plasma sample, 150 µL of internal standard solution (1.67 µg/mL 2-chloroadenosine in methanol) was added. The samples were then vortex-mixed for 10 s and were centrifuged for 3 min at 17949 g. Supernatant (20 µL) was collected and diluted 10-fold with DDW before injection into the LC-MS/MS for analysis of cordycepin and 3′-deoxyinosine. For analysis of CordyTP, the supernatant was filtered using filter tubes mentioned above and injected without dilution. Tissue samples were homogenised using Bullet Blender Gold (Next Advance, Inc., Troy, NY) in methanol (1:3 w/v) and centrifuged for 3 min at 17949 g. The supernatant was filtered and injected for analysis of CordyTP or diluted 10-fold with DDW for analysis of cordycepin and 3′-deoxyinosine. The LC-MS/MS system was a API4000 QTrap (AB Sciex, Warrington, UK) equipped with HPLC setup of SCL10Avp controller, LC10ADvp pump and SILHTC autosampler (Shimadzu, Milton Keynes, UK). Three different methods were utilised for each compound and multiple reaction monitoring parameters of the MS/MS conditions are shown in Table 1. The HPLC conditions including stationary phases and specific mass spectrometry parameters are shown in Supplementary Information 2. The LC-MS/MS method for cordycepin was fully validated in terms of accuracy, precision, sensitivity, selectivity, linearity and sample storage stability in accordance with the Guidance for Industry, Bioanalytical Method Validation, (2018) published by the US FDA (refer to Supplementary Information 3 for validation procedures and results)[53].
Data are presented as mean ± standard deviation (SD). A two-tailed unpaired t-test was applied for assessment of statistical significance of differences between two groups. For three or more groups, the statistical significance was assessed by application of a one-way ANOVA followed by Tukey’s multiple comparisons test. A p-value lower than 0.05 was deemed statistically significant. Statistical analyses were conducted using GraphPad Prism version 7.01 (GraphPad Software, Inc., La Jolla, CA, USA). Pharmacokinetic parameters were obtained by non-compartmental analysis using Phoenix WinNonlin 6.3 software (Pharsight, Mountain View, CA, USA).
For calculation of pharmacokinetic parameters, the plasma concentration-time curve was plotted in a semi-log scale. From the plot, the elimination rate constant (ke) was calculated. Elimination half-life (t1/2) wasthen calculated using the following equation: […]

[3] = Plasma stability of cordycepin in human plasma; format: in vitro ADME; conditions: read-out: ex vivo stability half-life (t1/2) in plasma
Protocol: (§2) Stability of cordycepin in plasma was tested using human and rat plasma by following a previously reported method with minor modifications. Cordycepin was spiked into the plasma at 10 µM and the samples were incubated in a shaking incubator (Thermo Scientific MaxQ4000, Waltham, MA, USA) at 37 °C and shaken at 250 rpm. Samples (100 µL) were withdrawn at predetermined time points. […] The experiments were performed in triplicates.
as §1, with “Mobile phase was a mixture of acetonitrile (A) and DDW (B) at flow rate 0.8 mL/min with a gradient scheme of the following: 0–9 min, B 94%; 9–14 min, B decreased to 20%; 14–24 min, B 20%; 24–26 min, B increased to 94%; and 26–35 min, B 94%. Calibration curves were constructed at a range of 10 – 20000 ng/mL and chromatograms were obtained at 259 nm of wavelength.” left out

[4] = Plasma stability of cordycepin in rat plasma; format: in vitro ADME; conditions: read-out: ex vivo stability half-life (t1/2) in plasma
Protocol: as §2
as §1, with “Mobile phase was a mixture of acetonitrile (A) and DDW (B) at flow rate 0.8 mL/min with a gradient scheme of the following: 0–9 min, B 94%; 9–14 min, B decreased to 20%; 14–24 min, B 20%; 24–26 min, B increased to 94%; and 26–35 min, B 94%. Calibration curves were constructed at a range of 10 – 20000 ng/mL and chromatograms were obtained at 259 nm of wavelength.” left out

[5] = male, Sprague Dawley, intravenous cordycepin 8 mg/kg
[6] = male, Sprague Dawley, intravenous cordycepin 20 mg/kg

For Nc1ncnc2c1ncn2[C@@H]1O[C@H](CO)C[C@H]1O [cordycepin, 3′-deoxyadenosine], the “Fh, parallel-tube model” value ([1]; NADPH +) was 0.0 ± 0.0%, the “Fh, well-stirred model” value ([1]; NADPH +) was 10.3 ± 0.7% and the “Fh, parallel-tube model” value ([1]; NADPH −) was 0.0 ± 0.0%. For the same molecule, the “Fh, well-stirred model” value ([1]; NADPH −) was 10.4 ± 0.3%, the CLint scaled at 1 µM ([1]; NADPH +) was 181 ± 13.9 mL/min/kg and the CLint scaled at 1 µM ([1]; NADPH −) was 179 ± 5.3 mL/min/kg. For the same molecule, the AUC(0-t) [2, 5] was 196 ± 94 ng·h/mL, the C0 [2, 5] was 890 ± 576 ng/mL and the AUC(0-t) [2, 6] was 232 ± 106 ng·h/mL. It also gave a C0 [2, 6] of 12300 ± 8840 ng/mL, a clearance ([2]; male, Sprague Dawley, rat, intravenous cordycepin 8 mg/kg) of 1720 mL/min/kg and a clearance ([2]; male, Sprague Dawley, rat, intravenous cordycepin 20 mg/kg) of 1520 mL/min/kg. The blood plasma ratio ([2]; male, Sprague Dawley, rat, whole blood and plasma, intravenous, 20 mg/kg, intravenous cordycepin 20 mg/kg) was 0.68 ± 0.27, the AUC0→t/Dose of cordycepin ([2]; intravenous cordycepin 8 mg/kg) was 25 ± 12 ng·kg·h/mL/mg and the AUC0→t/Dose of cordycepin ([2]; intravenous cordycepin 20 mg/kg) was 12 ± 5 ng·kg·h/mL/mg. For the same molecule, the “increase of AUC when dose increased from 8 to 20 mg/kg” value ([2]; rat, intravenous cordycepin) was 1.18 fold, the “increase of C0 when dose increased from 8 to 20 mg/kg” value ([2]; rat, intravenous cordycepin) was 13.8 fold and the blood/plasma ratio ([2]; rat, intravenous cordycepin 20 mg/kg) was < 1. For the same molecule, the “cordycepin in plasma after oral administration” value ([2]; rat, oral cordycepin 8 or 80 mg/kg, any time point, limit of quantification 2 ng/mL) was “not detected in plasma at all”, the half-life at 10 µM [3] was 25.8 ± 4 min and the half-life at 10 µM [4] was 25 ± 0.7 min.
